Results on 25 compounds are retold here after ChEMBL document CHEMBL3259722, “MT1 and MT2 melatonin receptors: ligands, models, oligomers, and therapeutic potential” (J Med Chem, 2014).

Each structure is given as a SMILES string.

Series [1] addresses T1, Melatonin receptor type 1A (Homo sapiens, UniProt P48039). Nature of the series: Antagonist activity at MT1 receptor (unknown origin) assessed as cAMP accumulation. The series is classed as functional.
The species entered for series [2] is Homo sapiens. The series is described as follows: Selectivity ratio of Ki for MT2 receptor (unknown origin) to Ki for MT1 receptor (unknown origin).
Series [3] has as its target T1, Melatonin receptor type 1A. Nature of the series: Displacement of [125I]2-iodomelatonin from human MT1 receptor expressed in CHO cells. Format: cell-based.
The target in series [4] is T2, Melatonin receptor type 1B (Homo sapiens, UniProt P49286).
T2 sequence (P49286 whole entry): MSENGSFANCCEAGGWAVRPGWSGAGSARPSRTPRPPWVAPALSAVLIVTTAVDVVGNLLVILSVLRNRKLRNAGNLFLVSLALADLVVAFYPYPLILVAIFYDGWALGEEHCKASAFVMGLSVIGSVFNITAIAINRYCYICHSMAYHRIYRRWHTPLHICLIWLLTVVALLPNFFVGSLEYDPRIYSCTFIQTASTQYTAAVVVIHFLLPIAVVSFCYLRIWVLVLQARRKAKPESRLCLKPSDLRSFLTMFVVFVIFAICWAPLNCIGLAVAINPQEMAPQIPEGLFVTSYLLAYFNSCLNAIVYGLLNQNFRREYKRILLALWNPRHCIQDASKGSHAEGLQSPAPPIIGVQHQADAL
The series is described as follows: Displacement of [125I]2-iodomelatonin from human MT2 receptor expressed in CHO cells. Format: cell-based. For orientation: Displacement assays read how much labelled ligand stays bound in the presence of the test substance.

The target of series [5] is T2, Melatonin receptor type 1B. The series is described as follows: Binding affinity to MT2 receptor (unknown origin) expressed in HEK cells. The series is classed as cell-based, HEK293.
Series [6] addresses T1, Melatonin receptor type 1A. The series is described as follows: Binding affinity to MT1 receptor (unknown origin) expressed in HEK cells. Format: cell-based, HEK293.
Series [7] is filed under the species Homo sapiens. The series is described as follows: Selectivity ratio of Ki for human MT2 receptor to Ki for human MT1 receptor.
The nature of series [8]: Partial agonist activity at melatonin receptor in chicken brain membranes assessed as cAMP level. Format: cell membranes, Gallus gallus, Membrane. For orientation: cAMP levels reflect the balance of adenylyl cyclase and phosphodiesterase activity.
For series [9], the species on record is Homo sapiens. Nature of the series: Selectivity ratio of Ki for MT1 receptor (unknown origin) to Ki for MT2 receptor (unknown origin).
Series [10] addresses T2, Melatonin receptor type 1B. Nature of the series: Displacement of [125I]2-iodomelatonin from MT2 receptor (unknown origin) expressed in HEK293 cells. Format: cell-based.
The species named for series [11] is Homo sapiens. The series is described as follows: Selectivity ratio of Ki for human recombinant MT1 receptor to Ki for human recombinant MT2 receptor.
The target of another series is CYP3A4 (Homo sapiens, UniProt P08684). Nature of the series: Half life of the compound assessed as CYP3A4 (unknown origin)-mediated drug metabolism. Format: ADME.
Sequence of CYP3A4 (P08684 whole entry): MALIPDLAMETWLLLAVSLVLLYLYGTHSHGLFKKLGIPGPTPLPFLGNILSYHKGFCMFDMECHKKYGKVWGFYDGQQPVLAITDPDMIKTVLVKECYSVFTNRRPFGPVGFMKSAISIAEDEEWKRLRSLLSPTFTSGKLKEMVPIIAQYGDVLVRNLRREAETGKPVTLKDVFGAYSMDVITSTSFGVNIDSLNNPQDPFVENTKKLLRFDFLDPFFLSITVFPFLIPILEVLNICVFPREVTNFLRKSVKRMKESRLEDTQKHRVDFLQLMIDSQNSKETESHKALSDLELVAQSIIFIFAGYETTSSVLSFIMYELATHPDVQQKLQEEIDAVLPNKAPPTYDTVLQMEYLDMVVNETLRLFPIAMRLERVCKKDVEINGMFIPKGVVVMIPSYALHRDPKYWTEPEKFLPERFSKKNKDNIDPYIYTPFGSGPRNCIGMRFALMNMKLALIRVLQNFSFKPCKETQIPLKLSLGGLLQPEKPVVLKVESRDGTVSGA
Series [12] addresses T2, Melatonin receptor type 1B. The series is described as follows: Displacement of [125I]2-iodomelatonin from human recombinant MT2 receptor expressed in African green monkey COS7 cells. The series is classed as cell-based, COS-7.
In series [13] the target is T1, Melatonin receptor type 1A. Nature of the series: biochemical.
Series [14] has as its target T1, Melatonin receptor type 1A. The series is described as follows: Antagonist activity at MT1 receptor (unknown origin) expressed in mouse NIH3T3 cells by [35S]GTPgammaS binding assay. Format: functional.
For series [15], the target named is T2, Melatonin receptor type 1B. Nature of the series: Antagonist activity at MT2 receptor (unknown origin) expressed in mouse NIH3T3 cells by [35S]GTPgammaS binding assay. The series is classed as functional. On the technique in general: Binding of GTPγS marks nucleotide exchange on a G protein.
The target in series [16] is T2, Melatonin receptor type 1B. The series is described as follows: Binding affinity to MT2 receptor (unknown origin) expressed in HEK293 cells. The series is classed as cell-based.
In series [17] the target is T1, Melatonin receptor type 1A. The series is described as follows: Binding affinity to MT1 receptor (unknown origin) expressed in HEK293 cells. The series is classed as cell-based.
Series [18] deals with T2, Melatonin receptor type 1B. Nature of the series: Agonist activity at MT2 receptor (unknown origin) expressed in mouse NIH3T3 cells assessed as inhibition of forskolin-induced cAMP accumulation. The series is classed as functional, cell-based.
Series [19] has as its target T1, Melatonin receptor type 1A. The series is described as follows: Agonist activity at MT1 receptor (unknown origin) expressed in mouse NIH3T3 cells assessed as inhibition of forskolin-induced cAMP accumulation. The series is classed as functional, cell-based.

T1 sequence (P48039 whole entry): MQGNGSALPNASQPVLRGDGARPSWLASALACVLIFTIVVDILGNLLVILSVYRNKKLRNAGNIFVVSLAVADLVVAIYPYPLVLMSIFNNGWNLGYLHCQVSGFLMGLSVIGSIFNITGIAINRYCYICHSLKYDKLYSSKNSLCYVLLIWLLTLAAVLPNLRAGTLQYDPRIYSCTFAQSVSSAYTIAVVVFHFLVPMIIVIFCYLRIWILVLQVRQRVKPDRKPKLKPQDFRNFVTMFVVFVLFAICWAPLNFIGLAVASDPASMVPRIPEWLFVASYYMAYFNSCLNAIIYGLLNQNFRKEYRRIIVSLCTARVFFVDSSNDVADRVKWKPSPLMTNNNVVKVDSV

For the compound `COc1cc2c(cc1OC)C(CCc1ccccc1)N(C(C)=O)CC2` (stereo unspecified), the IC50 in series [1] is more than 1000 nM.

In the case of `CCCCCCOc1ccc2c(c1)C(CCNC(C)=O)CCO2` (stereo unspecified), the Ratio Ki in the series filed under Homo sapiens [2] came to 25. Also, the Ki in [3] stood at 3.4 nM; in series [4] it was 21.4 nM; in series [5], 29 nM; in series [6], 1.2 nM.

As for `O=C(NCCCc1cccc2nc(CCCCc3ccccc3)oc12)C1CC1`, the Ratio Ki in the series filed under Homo sapiens [7] is 35.

With `CCCC(=O)NCCCc1cccc2c1OCCO2`, the Ki in series [8] was determined as 2.4 nM.

Consider `COc1cccc(Cc2oc3ccc(OC)cc3c2CCNC(C)=O)c1`, for which the Ratio Ki in the series listed under Homo sapiens [9] is 123. In [10], the affinity corresponds to a Ki of 0.33 nM.

Turning to `CCCC(=O)NCCc1c2n(c3ccc(OC)cc13)Cc1ccccc1-2`, the Ratio Ki in the series filed under Homo sapiens [11] was found to be 89.

As for `CC(=O)NCCc1cccc2ccc(OCCCCOc3ccc4cccc(CCNC(C)=O)c4c3)cc12`, the Ratio Ki was 54 in the series filed under Homo sapiens [7] and 122 in the series listed under Homo sapiens [2]. In addition, the Ki in series [3] came out at 3.1 nM; in series [4] it was 167 nM.

On to `COc1ccc2[nH]cc(CCNC(C)=O)c2c1` [MELATONIN], for which the half-life at CYP3A4 came to 20 min.

For the compound `COc1cc2[nH]cc(CCNC(C)=O)c2cc1OC`, the Ki worked out at 3.5 nM in [12] and 207 nM in [13]. The Ratio Ki in the series filed under Homo sapiens [11] was found to be 60.

Take `CC(=O)NCCc1c[nH]c2ccc(OCCCc3ccccc3)cc12`: in the series filed under Homo sapiens [7], the Ratio Ki is 10. Besides, the Ki was 3.9 nM in series [3] and 49 nM in [4].

Turning to `COc1ccc2c(c1)C(CNC(C)=O)Cc1ccccc1C2` (stereo unspecified), the Ki in series [14] was 27 nM; in series [15], 1.3 nM.

As to `CCCNC(=O)CCCc1cccc2c1SCCO2`, the IC50 came to 6.7 nM in series [16] and 2.3 nM in series [17].

In turn, `CCC(=O)NC1Cc2ccccc2C(c2ccccc2)C1` (racemic) yielded an inhibition constant Ki in [13] of 501 nM. Moreover, the Ratio Ki in the series listed under Homo sapiens [11] is 330.

As for `COc1cc2c(CCNC(C)=O)c(C)[nH]c2cc1Cl`, the Ki in [12] was found to be 2.2 nM.

`COc1ccc2oc(Cc3ccccc3)c(CCNC(C)=O)c2c1`: the Ratio Ki in the series listed under Homo sapiens [9] stood at 23.

As to `COc1cc2c(cc1OC)C(CC(c1ccccc1)c1ccccc1)N(C(C)=O)CC2` (stereo unspecified), the IC50 in [1] is more than 1000 nM.

`CC(=O)NCCN(C)c1cccc(OCCCCc2ccccc2)c1`: in series [18], the Ki worked out at 91.2 nM.

Turning to `CC(=O)NCCc1cccc2ccc(OCCCOc3ccc4cccc(CCNC(C)=O)c4c3)cc12`, in the series listed under Homo sapiens [7], the Ratio Ki is 3. Also, the Ki in series [3] worked out at 3.9 nM; in [4] it was 149 nM.

Take `CCCC(=O)NCCc1c2n(c3ccc(OC)cc13)CCCc1ccccc1-2`: the Ratio Ki in the series filed under Homo sapiens [11] amounted to 132.

Turning to `CCOC(=O)c1[nH]c2ccc(OC)c3c2c1[C@@H](CNC(C)=O)CC3`, the Ki in series [19] was determined as 0.18 nM; in series [18] it was 0.29 nM.

With `CC(=O)NCCc1c(Cc2ccccc2)[nH]c2ccccc12`, the Ratio Ki in the series listed under Homo sapiens [11] amounted to 15.

Consider `CC(=O)NCCc1cccc2ccc(-c3ccc4cccc(CCNC(C)=O)c4c3)cc12`, for which the Ki in series [3] worked out at 5.2 nM; in series [4], 246 nM.

On to `C=CCC(=O)NCCc1c(Cc2cccc(OC)c2)oc2ccc(OC)cc12`, for which the Ratio Ki in the series listed under Homo sapiens [9] came out at 192.

With `COc1ccc2[nH]c(Cc3ccccc3)c(CCNC(C)=O)c2c1`, the Ratio Ki in the series filed under Homo sapiens [11] came to 130.

As for `CC(=O)NCCc1c[nH]c2ccc(OCCCOc3ccccc3)cc12`, in the series listed under Homo sapiens [7], the Ratio Ki stood at 10. For the same compound, the inhibition constant (Ki) in series [3] is 7.9 nM; in series [4], 87 nM.

As a reminder, the IC50 is the midpoint of a concentration-inhibition curve. Broadly, the Ki is a measure of affinity in units of concentration, obtained from inhibition or displacement. One may read the half-life as the time needed for the level to fall by half in the phase considered.
